In US10760052B2, “Method of inhibiting tau phosphorylation” (priority 2012, dated 2020):
Like-named read-outs stand apart in the source and are kept apart here.

Target: T1, mu opiate receptor (MOR) (Rattus norvegicus, UniProt P33535)
T1 construct: from tissue; host or cells: striatum (membrane preparation)
Format: biochemical

[1] = [35S]GTPγS binding to Gαo in striatal membranes, compound 0.1 μM
[2] = [35S]GTPγS binding to Gαo in striatal membranes, compound 1 μM
[3] = [35S]GTPγS binding to Gαo in striatal membranes, compound 1 μM plus 1 μM β-funaltrexamine (MOR antagonist)

T1 sequence (P33535 whole entry): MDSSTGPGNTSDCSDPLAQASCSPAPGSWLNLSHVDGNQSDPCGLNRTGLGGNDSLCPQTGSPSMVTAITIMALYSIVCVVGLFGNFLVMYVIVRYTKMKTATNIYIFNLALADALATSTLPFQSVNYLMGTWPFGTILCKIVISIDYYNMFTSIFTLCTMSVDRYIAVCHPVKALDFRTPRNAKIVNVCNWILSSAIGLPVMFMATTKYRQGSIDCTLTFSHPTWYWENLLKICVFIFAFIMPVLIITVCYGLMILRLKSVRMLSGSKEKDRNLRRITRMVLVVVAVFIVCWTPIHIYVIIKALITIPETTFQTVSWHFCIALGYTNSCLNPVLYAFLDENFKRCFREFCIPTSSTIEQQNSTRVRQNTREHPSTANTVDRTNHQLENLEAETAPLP

Structure (SMILES)	% DAMGO (0.1 μM) [%]	% DAMGO (1 μM) [%]	% DAMGO + BFNA [%]	Concentration of FLNA-Binding Compound as Agonist 0.1 μM [1] [%]	Concentration of FLNA-Binding Compound as Agonist 1 μM [2] [%]	Concentration of FLNA-Binding Compound as Agonist 1 μM + BFNA [3] [%]	Concentration of FLNA-Binding Compound as Agonist 0.1 μM [%]	Concentration of FLNA-Binding Compound as Agonist 1 μM [%]	Concentration of FLNA-Binding Compound as Agonist 1 μM + BFNA [%]	[35S]GTPγS binding, FLNA-Binding Compound as Agonist at 0.1 μM [%]	[35S]GTPγS binding, FLNA-Binding Compound as Agonist at 1 μM [%]	[35S]GTPγS binding, FLNA-Binding Compound as Agonist at 1 μM + BFNA [%]
COc1c2c(cc3c1C(CC(=O)Cc1ccccc1C)N(C)CC3)OCO2 (stereo not drawn) [Compound B0053]	94.8	137.0	809.0	160.2	299.8	134.3						
COc1c2c(cc3c1C(CC(=O)Cc1ccccc1F)[N+](C)(C)CC3)OCO2 (stereo not drawn) [Compound B0055]	91.8	133.1	446.8	162.1	338.5	117.5						
COc1ccc(CCCCC2c3c(cc4c(c3OC)OCO4)CC[N+]2(C)C)cc1 (stereo not drawn) [Compound B0056]	98.9	113.6	158.9	174.7	288.8	41.8						
Cc1ccc(S(=O)(=O)N2CCC3(CC2)OCCN3S(=O)(=O)c2ccc(C)cc2)cc1 [Compound C0001]	75.2	66.6	52.9	129.3	184.3	33.9						
COc1cccc(S(=O)(=O)N2CCC3(CC2)OCCN3S(=O)(=O)c2cccc(OC)c2)c1 [Compound C0002]	51.4	33.9	6.1	88.4	93.8	3.9						
COc1ccccc1S(=O)(=O)N1CCC2(CC1)OCCN2S(=O)(=O)c1ccccc1OC [Compound C0003]	91.9	83.3	163.9	162.3	215.9	107.7						
N#Cc1ccccc1S(=O)(=O)N1CCC2(CC1)OCCN2S(=O)(=O)c1ccccc1C#N [Compound C0004]	72.1	85.4	99.7	122.0	228.4	65.8						
O=S(=O)(c1cccc(OC(F)(F)F)c1)N1CCC2(CC1)OCCN2S(=O)(=O)c1cccc(OC(F)(F)F)c1 [Compound C0005]	105.4	85.1	319.4	180.4	227.2	166.4						
O=S(=O)(c1ccc(OC(F)(F)F)cc1)N1CCC2(CC1)OCCN2S(=O)(=O)c1ccc(OC(F)(F)F)cc1 [Compound C0006]	70.6	73.8	7.2	121.5	204.0	4.6						
CC(C)c1ccc(S(=O)(=O)N2CCC3(CC2)OCCN3S(=O)(=O)c2ccc(C(C)C)cc2)cc1 [Compound C0007]	46.0	70.5	17.0	79.1	195.0	10.9						
N#Cc1ccc(S(=O)(=O)N2CCC3(CC2)OCCN3S(=O)(=O)c2ccc(C#N)cc2)cc1 [Compound C0008]	41.4	72.9	4.4	71.2	201.6	2.8						
CS(=O)(=O)c1ccc(S(=O)(=O)N2CCC3(CC2)OCCN3S(=O)(=O)c2ccc(S(C)(=O)=O)cc2)cc1 [Compound C0009]	85.1	92.6	41.2	146.3	256.2	26.4						
O=S(=O)(c1ccc(-c2ccccc2)cc1)N1CCC2(CC1)OCCN2S(=O)(=O)c1ccc(-c2ccccc2)cc1 [Compound C0010]	80.7	114.9	135.0	136.5	307.0	89.1						
CC(=O)c1ccc(S(=O)(=O)N2CCC3(CC2)OCCN3S(=O)(=O)c2ccc(C(C)=O)cc2)cc1 [Compound C0011]	126.8	114.3	36.5				217.0	305.0	19.0	217.0	305.0	19.0
O=S(=O)(c1ccc(C(F)(F)F)cc1)N1CCC2(CC1)OCCN2S(=O)(=O)c1ccc(C(F)(F)F)cc1 [Compound C0012]	54.8	86.7	280.7	96.8	224.8	184.4						
CC(=O)Nc1ccc(S(=O)(=O)N2CCC3(CC2)OCCN3S(=O)(=O)c2ccc(NC(C)=O)cc2)cc1 [Compound C0013]	91.0	108.9	61.8	156.6	301.2	39.6						
Cc1cccc(S(=O)(=O)N2CCC3(CC2)OCCN3S(=O)(=O)c2cccc(C)c2)c1 [Compound C0014]	82.0	59.2	116.1	144.9	153.5	76.3						
Cc1ccccc1S(=O)(=O)N1CCC2(CC1)OCCN2S(=O)(=O)c1ccccc1C [Compound C0015]	78.5	78.9	193.0	138.7	204.7	126.8						
O=S(=O)(c1ccccc1)N1CCC2(CC1)OCCN2S(=O)(=O)c1ccccc1 [Compound C0016]	100.4	83.3	150.9	172.7	230.5	96.7						
